{
  "source": "paper PMC12921513",
  "about": "(ACS Bio & Med Chem Au, 2025)",
  "note": "Several values for one entry are separate records, joined by “and”; a condition that tells them apart may be missing. Equal entries are not always repeated.",
  "data": [
    {"test_system": "SaFabI", "assay": "SaFabI fluorescence intensity counter-screen", "settings": "30 μM inhibitor, 200 nM enzyme", "method": "A similar fluorescence intensity assay was utilized to counter-screen against S. aureus (SaFabI) to determine the degree of selectivity for FabK over FabI.\nThe SaFabI assay was conducted as follows. Reactions were carried out at 25 °C in the assay buffer (50 mM MES pH 5.5, 100 mM NaCl). […] The oxidation of NADPH to NADP^+ was measured by tracking fluorescence (340 nm/460 nm) with a Biotek Synergy H1 microplate reader in 15 s intervals for a total of 10 min to monitor the rate of reaction. Reaction was conducted in Greiner Bio-One 384-Well μClear Bottom Polystyrene Microplates. The percent inhibition of each compound was calculated on the basis of the resulting velocity.", "values": [
      {"smiles": "CS(=O)(=O)c1ccc2nc(NC(=O)NCc3nc(-c4ccc(Br)cc4)c[nH]3)sc2c1", "note": "[compound 2]", "SaFabI % inhibition, 30 μM": "21.0%"},
      {"smiles": "O=C(NCc1nc(-c2ccc(Br)cc2)c[nH]1)Nc1nc2cc(Cl)ccc2s1", "note": "[compound 3]", "SaFabI % inhibition, 30 μM": "9.8%"},
      {"smiles": "O=C(NCc1nc(-c2ccc(Br)cc2)c[nH]1)Nc1nc2cccc(C(F)(F)F)c2s1", "note": "[compound 4]", "SaFabI % inhibition, 30 μM": "18%"},
      {"smiles": "Oc1cc(Cl)ccc1Oc1ccc(Cl)cc1Cl", "note": "[triclosan, reference compound]", "SaFabI % inhibition, 30 μM": "99% and 99.9%"}
    ]}
  ]
}
